Measured values taken from patent US20080171783A1, “COMPOSITIONS AND METHODS FOR TREATING HYPERPROLIFERATIVE DISEASE” (Migenix Inc., priority 2006, published 2008).

What was measured:
Calf polymerase alpha = target: T1, Calf polymerase alpha (Bos taurus, UniProt A0AAA9TD94); test: Calf polymerase alpha inhibition (Replizyme kit); type: biochemical; settings: for inhibition at 10 µM / % Inhibition: single point screening, at 10 μM
T1 construct: purchased Replizyme Ltd (Heslington, York, UK)
T1 sequence (A0AAA9TD94 1-1441): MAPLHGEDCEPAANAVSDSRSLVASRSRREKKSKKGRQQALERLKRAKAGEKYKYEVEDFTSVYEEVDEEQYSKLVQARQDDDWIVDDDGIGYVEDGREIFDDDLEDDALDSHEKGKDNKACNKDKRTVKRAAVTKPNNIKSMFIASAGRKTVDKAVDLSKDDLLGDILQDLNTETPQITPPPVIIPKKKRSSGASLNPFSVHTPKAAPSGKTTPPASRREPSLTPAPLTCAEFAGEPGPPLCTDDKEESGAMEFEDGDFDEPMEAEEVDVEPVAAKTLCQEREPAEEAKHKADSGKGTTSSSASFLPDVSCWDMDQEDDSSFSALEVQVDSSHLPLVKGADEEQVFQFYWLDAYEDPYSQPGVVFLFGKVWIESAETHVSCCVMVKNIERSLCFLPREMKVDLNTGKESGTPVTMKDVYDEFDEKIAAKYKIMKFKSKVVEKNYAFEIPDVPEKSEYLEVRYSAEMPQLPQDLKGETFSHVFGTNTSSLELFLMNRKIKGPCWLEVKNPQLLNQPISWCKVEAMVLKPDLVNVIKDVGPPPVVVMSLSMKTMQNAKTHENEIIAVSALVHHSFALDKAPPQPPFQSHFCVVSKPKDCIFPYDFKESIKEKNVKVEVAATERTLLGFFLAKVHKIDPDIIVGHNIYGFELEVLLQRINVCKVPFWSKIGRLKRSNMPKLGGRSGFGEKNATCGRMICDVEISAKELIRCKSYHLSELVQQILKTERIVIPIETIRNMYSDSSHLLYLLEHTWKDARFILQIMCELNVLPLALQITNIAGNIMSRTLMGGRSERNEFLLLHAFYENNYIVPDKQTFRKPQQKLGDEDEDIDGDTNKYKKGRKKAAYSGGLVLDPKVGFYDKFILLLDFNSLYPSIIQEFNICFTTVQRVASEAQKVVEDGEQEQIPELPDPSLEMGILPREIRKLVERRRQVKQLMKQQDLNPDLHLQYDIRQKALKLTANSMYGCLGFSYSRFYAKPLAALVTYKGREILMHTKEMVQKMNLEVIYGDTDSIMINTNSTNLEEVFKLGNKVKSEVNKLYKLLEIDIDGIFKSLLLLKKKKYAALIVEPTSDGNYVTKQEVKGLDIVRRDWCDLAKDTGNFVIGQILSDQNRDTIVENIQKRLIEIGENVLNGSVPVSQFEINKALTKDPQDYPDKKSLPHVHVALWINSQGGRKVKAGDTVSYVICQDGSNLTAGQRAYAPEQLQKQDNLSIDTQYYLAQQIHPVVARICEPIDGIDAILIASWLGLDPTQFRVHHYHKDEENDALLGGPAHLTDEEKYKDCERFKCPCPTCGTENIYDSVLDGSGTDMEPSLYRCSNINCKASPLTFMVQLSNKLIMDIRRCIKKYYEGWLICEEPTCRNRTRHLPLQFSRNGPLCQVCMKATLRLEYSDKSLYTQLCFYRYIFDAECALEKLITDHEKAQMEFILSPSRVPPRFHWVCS
Procedure: Calf polymerase alpha and human polymerase alpha investigations were performed with a kit available from Replizyme Ltd (Heslington, York, UK).

[1] = tested on: 5 Leukemia and 5 Colon Cancer Cell Lines; test: Cell viability by XTT, cell line panel; type: cell-based; settings: for Range (Percentage of Control over the same 10 cell lines) / ARF (Average Response Factor, Average Percentage of Control): 10 μM; for Range (Percentage of Control over the same 10 cell lines): lowest to highest of the ten cell lines; for viability at 10 µM / ARF (Average Response Factor, Average Percentage of Control): average of the ten Percentage of Control values; for viability at 10 µM: read-out: ARF (Average Response Factor, Average Percentage of Control)
Procedure: Compounds were solubilized at […] in DMSO and were stored at −20° C. Test compounds were initially tested at a single concentration of 10 μM and a subset of test compounds were further tested in selected cell lines using a six concentration dose response curve.
Cell Preparation Cancer cell lines were passaged in T-75 flasks prior to use in the assay in cell culture medium recommended by the ATCC (American Type Culture Collection; Table 6). On the day preceding the assay, the cells were split 1:2 to assure they were in an exponential growth phase at the time of compound treatment. Total cell and viability quantification was performed using a hemocytometer and Trypan Blue dye exclusion. […] The cells were resuspended at the appropriate cell per mL (Table 6) in tissue culture medium and added to the microtitre plates in a volume of 100 μL. Colon cell lines were incubated overnight at 37° C./5% CO2 to allow for cell adherence to the plates.
Plate Format: Each plate contains cell control wells (cells only), drug calorimetric control wells (drug only) as well as experimental wells (drug plus cells). Samples were tested in triplicate at a concentration of 10 μM and five half-logarithmic dilutions.
Cell Viability by XTT: Following incubation at 37° C. in a 5% CO2 incubator for four days, the test plates were stained with the tetrazolium dye XTT (2,3-bis(2-methoxy-4-nitro-5-sulfophenyl)-5-[(phenylamino)carbonyl]-2H-tetrazolium hydroxide). XTT-tetrazolium was metabolized by the mitochondrial enzymes of metabolically active cells to a soluble formazan product. XTT solution was prepared daily as a stock of 1 mg/mL in RPMI1640. Phenazine methosulfate (PMS) solution was prepared at 0.15 mg/mL in phosphate buffered saline (PBS) and stored in the dark at −20° C. XTT/PMS stock was prepared immediately before use by adding 40 μL of PMS per mL of XTT solution. Fifty (50) microlitres of XTT/PMS was added to each well of the plate and the plate was reincubated for 4 hours at 37° C. Plates were sealed with adhesive plate sealers and shaken gently or inverted several times to mix the soluble formazan product and the plate was read spectrophotometrically at 450/650 nm with a Molecular Devices Vmax plate reader. […] An Average Response Factor (ARF) was calculated for each compound by averaging the ten Percentage of Control values for the cell lines. […] Deviations below 100% control indicate activity. The concentration of each tested compound is 10 μM.

Cc1cc2cc(NC(=O)[C@H](CCCCN)NC(=O)Nc3ccc(OCc4ccccc4)cc3)ccc2[nH]1 [Compound 206, (S)-6-AMINO-2-[3-(4-BENZYLOXY-PHENYL)-UREIDO]-HEXANOIC ACID (2-METHYL-1H-INDOL-5-YL)-AMIDE]
inhibition at 10 µM (Calf polymerase alpha): 87% | Range (Percentage of Control over the same 10 cell lines) [1]: 81.4 to 107.6% | viability at 10 µM [1]: 92.9%

NCc1ccc(NC(=O)[C@@H](NC(=O)Nc2ccc(OCc3ccccc3)cc2)c2ccccc2)cc1 [Compound 305, (S)—N-(4-AMINOMETHYL-PHENYL)-2-[3-(4-BENZYLOXY-PHENYL)-UREIDO]-2-PHENYL-ACETAMIDE]
inhibition at 10 µM (Calf polymerase alpha): 104% | Range (Percentage of Control over the same 10 cell lines) [1]: 30.9 to 105.9% | viability at 10 µM [1]: 79.5%

Cc1ccc(NC(=O)[C@H](CCCN)NC(=O)Nc2ccc(OCc3ccccc3)cc2)cc1 [Compound 189, (S)-5-AMINO-2-[3-(4-BENZYLOXY-PHENYL)-UREIDO]-PENTANOIC ACID P-TOLYLAMIDE]
% Inhibition (Calf polymerase alpha): 76% | ARF (Average Response Factor, Average Percentage of Control) [1]: 89.0% | Range (Percentage of Control over the same 10 cell lines) [1]: 66.6 to 107.6%

Cc1ccc(NC(=O)[C@H](CCCCN)NC(=O)CNc2ccccc2Oc2ccccc2)cc1 [Compound 366, (S)-6-AMINO-2-[2-(2-PHENOXY-PHENYLAMINO)-ACETYLAMINO]-HEXANOIC ACID P-TOLYLAMIDE]
% Inhibition (Calf polymerase alpha): 100% | ARF (Average Response Factor, Average Percentage of Control) [1]: 100.4% | Range (Percentage of Control over the same 10 cell lines) [1]: 64.8 to 121.1%

Cc1ccc(NC(=O)[C@H](CCCCN)NC(=O)Nc2cccc(Cc3ccccc3)c2)cc1 [Compound 212, (S)-6-AMINO-2-[3-(3-BENZYL-PHENYL)-UREIDO]-HEXANOIC ACID P-TOLYLAMIDE]
% Inhibition (Calf polymerase alpha): 97% | ARF (Average Response Factor, Average Percentage of Control) [1]: 94.2% | Range (Percentage of Control over the same 10 cell lines) [1]: 52.7 to 118.6%

Cc1ccc(NC(=O)C[C@H](CCCCN)NC(=O)Nc2ccc3c(c2)Cc2ccccc2-3)cc1 [Compound 247, (S)-7-AMINO-3-[3-(9H-FLUOREN-2-YL)-UREIDO]-HEPTANOIC ACID P-TOLYLAMIDE]
% Inhibition (Calf polymerase alpha): 87% | ARF (Average Response Factor, Average Percentage of Control) [1]: 85.6% | Range (Percentage of Control over the same 10 cell lines) [1]: 28.5 to 104.3%

NCCCC[C@H](NC(=O)Nc1ccc(OCc2ccccc2)cc1)C(=O)Nc1ccc(C2CCCCC2)cc1 [Compound 117, (S)-6-AMINO-2-[3-(4-BENZYLOXY-PHENYL)-UREIDO]-HEXANOIC ACID (4-CYCLOHEXYL-PHENYL)-AMIDE]
inhibition at 10 µM (Calf polymerase alpha): 102% | Range (Percentage of Control over the same 10 cell lines) [1]: 35.7 to 125.7% | viability at 10 µM [1]: 86.5%

O=C(CC1CNCCN1C(=O)Nc1ccc(OCc2ccccc2)cc1)Nc1ccc(C2CCCCC2)cc1 (stereo not shown) [Compound 163, 2-[(4-CYCLOHEXYL-PHENYLCARBAMOYL)-METHYL]-PIPERAZINE-1-CARBOXYLIC ACID (4-BENZYLOXY-PHENYL)-AMIDE]
inhibition at 10 µM (Calf polymerase alpha): 102%

Cc1ccc(N(C)C(=O)[C@H](CCCCN)NC(=O)OCC2c3ccccc3-c3ccccc32)cc1 [Compound 92, (S)-[5-AMINO-1-(METHYL-P-TOLYL-CARBAMOYL)-PENTYL]-CARBAMIC ACID 9H-FLUOREN-9-YLMETHYL ESTER]
% Inhibition (Calf polymerase alpha): 56.5%

Cc1ccc(NC(=O)[C@H](Cc2ccc(CN)cc2)NC(=O)Nc2ccc(OCc3ccccc3)cc2)cc1 [Compound 146, (S)-3-(4-AMINOMETHYL-PHENYL)-2-[3-(4-BENZYLOXY-PHENYL)-UREIDO]-N-P-TOLYL-PROPIONAMIDE]
% Inhibition (Calf polymerase alpha): 102%

Cc1ccc(NC(=O)[C@H](CCCCNC(=O)CN)NC(=O)OCC2c3ccccc3-c3ccccc32)cc1 [Compound 176, (S)-[5-(2-AMINO-ACETYLAMINO)-1-P-TOLYLCARBAMOYL-PENTYL]-CARBAMIC ACID 9H-FLUOREN-9-YLMETHYL ESTER]
% Inhibition (Calf polymerase alpha): 68%

CC(=O)NCCCC[C@H](NC(=O)OCC1c2ccccc2-c2ccccc21)C(=O)Nc1ccc(C)cc1 [Compound 181, (S)-(5-ACETYLAMINO-1-P-TOLYLCARBAMOYL-PENTYL)-CARBAMIC ACID 9H-FLUOREN-9-YLMETHYL ESTER]
% Inhibition (Calf polymerase alpha): 18.5%

Cc1ccc(NC(=O)CC2CN(C(=O)[C@H](C)N)CCN2C(=O)OCC2c3ccccc3-c3ccccc32)cc1 (stereo partly drawn) [Compound 184, 4-((S)-2-AMINO-PROPIONYL)-2-(P-TOLYLCARBAMOYL-METHYL)-PIPERAZINE-1-CARBOXYLIC ACID 9H-FLUOREN-9-YLMETHYL ESTER]
% Inhibition (Calf polymerase alpha): 38%

NCCCCN(CC(=O)Nc1cccc2[nH]ccc12)C(=O)Nc1ccc(OCc2ccccc2)cc1 [Compound 281, 2-[1-(4-AMINO-BUTYL)-3-(4-BENZYLOXY-PHENYL)-UREIDO]-N-(1H-INDOL-4-YL)-ACETAMIDE]
inhibition at 10 µM (Calf polymerase alpha): 30.5% | IC50 (Calf polymerase alpha; dose response): 9.2 µM

Cc1ccc(NC(=O)[C@H](CCCCN)NC(=O)Nc2ccc(OCc3ccncc3)cc2)cc1 [Compound 279, (S)-6-AMINO-2-{3-[4-(PYRIDIN-4-YLMETHOXY)-PHENYL]-UREIDO}-HEXANOIC ACID P-TOLYLAMIDE]
% Inhibition (Calf polymerase alpha): 15%

Cc1ccc(NC(=O)[C@H](CCCCN)NC(=O)Nc2ccc(OCc3ccc(F)cc3)cc2)cc1 [Compound 250, (S)-6-AMINO-2-{3-[4-(4-FLUORO-BENZYLOXY)-PHENYL]-UREIDO}-HEXANOIC ACID P-TOLYLAMIDE]
% Inhibition (Calf polymerase alpha): 57%

Cc1ccc(NC(=O)[C@H](CN)NC(=O)OCC2c3ccccc3-c3ccccc32)cc1 [Compound 103, (S)-(2-AMINO-1-P-TOLYLCARBAMOYL-ETHYL)-CARBAMIC ACID 9H-FLUOREN-9-YLMETHYL ESTER]
% Inhibition (Calf polymerase alpha): 72%

Cc1ccc(NC(=O)C(CCCCN)NC(=O)OCC2c3ccccc3-c3ccccc32)cn1 (stereo not shown) [Compound 294, [5-AMINO-1-(6-METHYL-PYRIDIN-3-YLCARBAMOYL)-PENTYL]-CARBAMIC ACID 9H-FLUOREN-9-YLMETHYL ESTER]
inhibition at 10 µM (Calf polymerase alpha): 19%

CNCC(=O)NCCC[C@H](NC(=O)OCC1c2ccccc2-c2ccccc21)C(=O)Nc1ccc(C)cc1 [Compound 223, (S)-[4-(2-METHYLAMINO-ACETYLAMINO)-1-P-TOLYLCARBAMOYL-BUTYL]-CARBAMIC ACID 9H-FLUOREN-9-YLMETHYL ESTER]
% Inhibition (Calf polymerase alpha): 22%
